Data published in publication PMC4512239 (Clinical cancer research : an official journal of the …, 2015).

Assay: phase I safety and tolerability
Type: in vivo, human

CNC(=O)c1cccc(-c2ccc3c(N4CCOC[C@@H]4C)nc(N4CCOC[C@@H]4C)nc3n2)c1 [AZD2014]
grade 3 or above hypercholesterolemia or triglyceridemia (50 mg BD cohort): no grade 3 or above hypercholesterolemia or triglyceridemia was seen | dose limiting toxicities (50 mg BD starting dose, 6 patients): no DLTs | nausea, mucositis, diarrhea and vomiting: share of grade 3 or 4 (50 mg BD, Part A and Part B): less than 5% | rash: share of grade 3 or higher (50 mg BD, Part A and Part B): less than 5% | evaluable patients with dose limiting toxicities (70 mg BD): 2/4 | patients with dose limiting toxicities (100 mg BD): 4/4 | Anemia, Any grade (All 50mg BD solution (N=41)): 7 (17.1) Number (%) of patients | Anemia, CTCAE grade 1-2 (All 50mg BD solution (N=41)): 7 (17.1) Number (%) of patients | Anemia, CTCAE grade >=3 (All 50mg BD solution (N=41)): 0 Number (%) of patients | Back pain, Any grade (All 50mg BD solution (N=41)): 7 (17.1) Number (%) of patients | Back pain, CTCAE grade 1-2 (All 50mg BD solution (N=41)): 6 (14.6) Number (%) of patients | Back pain, CTCAE grade >=3 (All 50mg BD solution (N=41)): 1 (2.4) Number (%) of patients | Constipation, Any grade (All 50mg BD solution (N=41)): 13 (31.7) Number (%) of patients | Constipation, CTCAE grade 1-2 (All 50mg BD solution (N=41)): 13 (31.7) Number (%) of patients | Constipation, CTCAE grade >=3 (All 50mg BD solution (N=41)): 0 Number (%) of patients | Cough, Any grade (All 50mg BD solution (N=41)): 8 (19.5) Number (%) of patients | Cough, CTCAE grade 1-2 (All 50mg BD solution (N=41)): 8 (19.5) Number (%) of patients | Cough, CTCAE grade >=3 (All 50mg BD solution (N=41)): 0 Number (%) of patients | Decreased appetite, Any grade (All 50mg BD solution (N=41)): 17 (41.5) Number (%) of patients | Decreased appetite, CTCAE grade 1-2 (All 50mg BD solution (N=41)): 17 (41.5) Number (%) of patients | Decreased appetite, CTCAE grade >=3 (All 50mg BD solution (N=41)): 0 Number (%) of patients | Diarrhea, Any grade (All 50mg BD solution (N=41)): 17 (41.5) Number (%) of patients | Diarrhea, CTCAE grade 1-2 (All 50mg BD solution (N=41)): 17 (41.5) Number (%) of patients | Diarrhea, CTCAE grade >=3 (All 50mg BD solution (N=41)): 0 Number (%) of patients | Dry mouth, Any grade (All 50mg BD solution (N=41)): 8 (19.5) Number (%) of patients | Dry mouth, CTCAE grade 1-2 (All 50mg BD solution (N=41)): 8 (19.5) Number (%) of patients | Dry mouth, CTCAE grade >=3 (All 50mg BD solution (N=41)): 0 Number (%) of patients | Dyspnea, Any grade (All 50mg BD solution (N=41)): 7 (17.1) Number (%) of patients | Dyspnea, CTCAE grade 1-2 (All 50mg BD solution (N=41)): 5 (12.2) Number (%) of patients | Dyspnea, CTCAE grade >=3 (All 50mg BD solution (N=41)): 2 (4.9) Number (%) of patients | Fatigue, Any grade (All 50mg BD solution (N=41)): 32 (78.0) Number (%) of patients | Fatigue, CTCAE grade 1-2 (All 50mg BD solution (N=41)): 30 (73.2) Number (%) of patients | Fatigue, CTCAE grade >=3 (All 50mg BD solution (N=41)): 2 (4.9) Number (%) of patients | Hypokalemia, Any grade (All 50mg BD solution (N=41)): 6 (14.6) Number (%) of patients | Hypokalemia, CTCAE grade 1-2 (All 50mg BD solution (N=41)): 5 (12.2) Number (%) of patients | Hypokalemia, CTCAE grade >=3 (All 50mg BD solution (N=41)): 1 (2.4) Number (%) of patients | Lower respiratory tract infection, Any grade (All 50mg BD solution (N=41)): 7 (17.1) Number (%) of patients | Lower respiratory tract infection, CTCAE grade 1-2 (All 50mg BD solution (N=41)): 6 (14.6) Number (%) of patients | Lower respiratory tract infection, CTCAE grade >=3 (All 50mg BD solution (N=41)): 1 (2.4) Number (%) of patients | Mucositis, Any grade (All 50mg BD solution (N=41)): 20 (48.8) Number (%) of patients | Mucositis, CTCAE grade 1-2 (All 50mg BD solution (N=41)): 19 (46.3) Number (%) of patients | Mucositis, CTCAE grade >=3 (All 50mg BD solution (N=41)): 1 (2.4) Number (%) of patients | Nausea, Any grade (All 50mg BD solution (N=41)): 21 (51.2) Number (%) of patients | Nausea, CTCAE grade 1-2 (All 50mg BD solution (N=41)): 19 (46.3) Number (%) of patients | Nausea, CTCAE grade >=3 (All 50mg BD solution (N=41)): 2 (4.9) Number (%) of patients | Pruritus, Any grade (All 50mg BD solution (N=41)): 13 (31.7) Number (%) of patients | Pruritus, CTCAE grade 1-2 (All 50mg BD solution (N=41)): 13 (31.7) Number (%) of patients | Pruritus, CTCAE grade >=3 (All 50mg BD solution (N=41)): 0 Number (%) of patients | Rash, Any grade (All 50mg BD solution (N=41)): 17 (41.5) Number (%) of patients | Rash, CTCAE grade 1-2 (All 50mg BD solution (N=41)): 15 (36.6) Number (%) of patients | Rash, CTCAE grade >=3 (All 50mg BD solution (N=41)): 2 (4.9) Number (%) of patients | Vomiting, Any grade (All 50mg BD solution (N=41)): 12 (29.3) Number (%) of patients | Vomiting, CTCAE grade 1-2 (All 50mg BD solution (N=41)): 11 (26.8) Number (%) of patients | Vomiting, CTCAE grade >=3 (All 50mg BD solution (N=41)): 1 (2.4) Number (%) of patients | Anemia, Any grade (Part A 25mg BD solution (N=6)): 0 Number (%) of patients | Anemia, CTCAE grade 1-2 (Part A 25mg BD solution (N=6)): 0 Number (%) of patients | Anemia, CTCAE grade >=3 (Part A 25mg BD solution (N=6)): 0 Number (%) of patients | Back pain, Any grade (Part A 25mg BD solution (N=6)): 0 Number (%) of patients | Back pain, CTCAE grade 1-2 (Part A 25mg BD solution (N=6)): 0 Number (%) of patients | Back pain, CTCAE grade >=3 (Part A 25mg BD solution (N=6)): 0 Number (%) of patients | Constipation, Any grade (Part A 25mg BD solution (N=6)): 2 (33.3) Number (%) of patients | Constipation, CTCAE grade 1-2 (Part A 25mg BD solution (N=6)): 2 (33.3) Number (%) of patients | Constipation, CTCAE grade >=3 (Part A 25mg BD solution (N=6)): 0 Number (%) of patients | Cough, Any grade (Part A 25mg BD solution (N=6)): 3 (50.0) Number (%) of patients | Cough, CTCAE grade 1-2 (Part A 25mg BD solution (N=6)): 3 (50.0) Number (%) of patients | Cough, CTCAE grade >=3 (Part A 25mg BD solution (N=6)): 0 Number (%) of patients | Decreased appetite, Any grade (Part A 25mg BD solution (N=6)): 3 (50.0) Number (%) of patients | Decreased appetite, CTCAE grade 1-2 (Part A 25mg BD solution (N=6)): 3 (50.0) Number (%) of patients | Decreased appetite, CTCAE grade >=3 (Part A 25mg BD solution (N=6)): 0 Number (%) of patients | Diarrhea, Any grade (Part A 25mg BD solution (N=6)): 2 (33.3) Number (%) of patients | Diarrhea, CTCAE grade 1-2 (Part A 25mg BD solution (N=6)): 2 (33.3) Number (%) of patients | Diarrhea, CTCAE grade >=3 (Part A 25mg BD solution (N=6)): 0 Number (%) of patients | Dry mouth, CTCAE grade >=3 (Part A 25mg BD solution (N=6)): 0 Number (%) of patients | Dyspnea, Any grade (Part A 25mg BD solution (N=6)): 1 (16.7) Number (%) of patients | Dyspnea, CTCAE grade 1-2 (Part A 25mg BD solution (N=6)): 1 (16.7) Number (%) of patients | Dyspnea, CTCAE grade >=3 (Part A 25mg BD solution (N=6)): 0 Number (%) of patients | Fatigue, Any grade (Part A 25mg BD solution (N=6)): 3 (50.0) Number (%) of patients | Fatigue, CTCAE grade 1-2 (Part A 25mg BD solution (N=6)): 2 (33.3) Number (%) of patients | Fatigue, CTCAE grade >=3 (Part A 25mg BD solution (N=6)): 1 (16.7) Number (%) of patients | Hypokalemia, Any grade (Part A 25mg BD solution (N=6)): 2 (33.3) Number (%) of patients | Hypokalemia, CTCAE grade 1-2 (Part A 25mg BD solution (N=6)): 2 (33.3) Number (%) of patients | Hypokalemia, CTCAE grade >=3 (Part A 25mg BD solution (N=6)): 0 Number (%) of patients | Lower respiratory tract infection, Any grade (Part A 25mg BD solution (N=6)): 1 (16.7) Number (%) of patients | Lower respiratory tract infection, CTCAE grade 1-2 (Part A 25mg BD solution (N=6)): 0 Number (%) of patients | Lower respiratory tract infection, CTCAE grade >=3 (Part A 25mg BD solution (N=6)): 1 (16.7) Number (%) of patients | Mucositis, Any grade (Part A 25mg BD solution (N=6)): 2 (33.3) Number (%) of patients | Mucositis, CTCAE grade 1-2 (Part A 25mg BD solution (N=6)): 2 (33.3) Number (%) of patients | Mucositis, CTCAE grade >=3 (Part A 25mg BD solution (N=6)): 0 Number (%) of patients | Nausea, Any grade (Part A 25mg BD solution (N=6)): 2 (33.3) Number (%) of patients | Nausea, CTCAE grade 1-2 (Part A 25mg BD solution (N=6)): 2 (33.3) Number (%) of patients | Nausea, CTCAE grade >=3 (Part A 25mg BD solution (N=6)): 0 Number (%) of patients | Pruritus, Any grade (Part A 25mg BD solution (N=6)): 0 Number (%) of patients | Pruritus, CTCAE grade 1-2 (Part A 25mg BD solution (N=6)): 0 Number (%) of patients | Pruritus, CTCAE grade >=3 (Part A 25mg BD solution (N=6)): 0 Number (%) of patients | Rash, Any grade (Part A 25mg BD solution (N=6)): 1(16.7) Number (%) of patients | Rash, CTCAE grade 1-2 (Part A 25mg BD solution (N=6)): 1(16.7) Number (%) of patients | Rash, CTCAE grade >=3 (Part A 25mg BD solution (N=6)): 0 Number (%) of patients | Vomiting, Any grade (Part A 25mg BD solution (N=6)): 0 Number (%) of patients | Vomiting, CTCAE grade 1-2 (Part A 25mg BD solution (N=6)): 0 Number (%) of patients | Vomiting, CTCAE grade >=3 (Part A 25mg BD solution (N=6)): 0 Number (%) of patients | Anemia, Any grade (Part A 70mg BD solution (N=5)): 1 (20.0) Number (%) of patients | Anemia, CTCAE grade 1-2 (Part A 70mg BD solution (N=5)): 0 Number (%) of patients | Anemia, CTCAE grade >=3 (Part A 70mg BD solution (N=5)): 1 (20.0) Number (%) of patients | Back pain, Any grade (Part A 70mg BD solution (N=5)): 0 Number (%) of patients | Back pain, CTCAE grade 1-2 (Part A 70mg BD solution (N=5)): 0 Number (%) of patients | Back pain, CTCAE grade >=3 (Part A 70mg BD solution (N=5)): 0 Number (%) of patients | Constipation, Any grade (Part A 70mg BD solution (N=5)): 0 Number (%) of patients | Constipation, CTCAE grade 1-2 (Part A 70mg BD solution (N=5)): 0 Number (%) of patients | Constipation, CTCAE grade >=3 (Part A 70mg BD solution (N=5)): 0 Number (%) of patients | Cough, Any grade (Part A 70mg BD solution (N=5)): 1 (20.0) Number (%) of patients | Cough, CTCAE grade 1-2 (Part A 70mg BD solution (N=5)): 1 (20.0) Number (%) of patients | Cough, CTCAE grade >=3 (Part A 70mg BD solution (N=5)): 0 Number (%) of patients | Decreased appetite, Any grade (Part A 70mg BD solution (N=5)): 2 (40.0) Number (%) of patients | Decreased appetite, CTCAE grade 1-2 (Part A 70mg BD solution (N=5)): 2 (40.0) Number (%) of patients | Decreased appetite, CTCAE grade >=3 (Part A 70mg BD solution (N=5)): 0 Number (%) of patients | Diarrhea, Any grade (Part A 70mg BD solution (N=5)): 3 (60.0) Number (%) of patients | Diarrhea, CTCAE grade 1-2 (Part A 70mg BD solution (N=5)): 3 (60.0) Number (%) of patients | Diarrhea, CTCAE grade >=3 (Part A 70mg BD solution (N=5)): 0 Number (%) of patients | Dry mouth, Any grade (Part A 70mg BD solution (N=5)): 0 Number (%) of patients | Dry mouth, CTCAE grade 1-2 (Part A 70mg BD solution (N=5)): 0 Number (%) of patients | Dry mouth, CTCAE grade >=3 (Part A 70mg BD solution (N=5)): 0 Number (%) of patients | Dyspnea, Any grade (Part A 70mg BD solution (N=5)): 1 (20.0) Number (%) of patients | Dyspnea, CTCAE grade 1-2 (Part A 70mg BD solution (N=5)): 1 (20.0) Number (%) of patients | Dyspnea, CTCAE grade >=3 (Part A 70mg BD solution (N=5)): 0 Number (%) of patients
